Literature values in patent US6927291B2, “Method for the synthesis of 2′,3′-dideoxy-2′,3′-didehydronucleosides” (Pharmasset, Ltd., priority 2001, dated 2005).

How the values were obtained:
[1] = system: AZT-resistant HIV isolates; conditions: in vitro; isolates from patients treated with AZT for longer than 36 weeks
[2] = system: HIV; conditions: result in words
[3] = system: HIV; conditions: versus all approved anti-HIV agents

| Compound | inhibition of replication of AZT-resistant HIV isolates [1] | activity against HIV [2] | cross-resistance [3] |
| --- | --- | --- | --- |
| Nc1ccn(C2CSC(CO)O2)c(=O)n1 (racemic) [BCH-189, 2-hydroxymethyl-5-(cytosin-1-yl)-1,3-oxathiolane] | inhibit the replication of AZT-resistant HIV isolates in vitro | approximately the same activity against HIV as AZT |  |
| Nc1nc(=O)n([C@@H]2CS[C@H](CO)O2)cc1F (relative stereo) [FTC, cis-2-hydroxymethyl-5-(5-fluorocytosin-1-yl)-1,3-oxathiolane] |  | potent HIV activity |  |
| Nc1ccn([C@@H]2CS[C@H](CO)O2)c(=O)n1 [Formula 3TC] |  | highly potent against HIV |  |
| Nc1nc(=O)n(C2C=CC(CO)O2)cc1F [β-D-D4FC, β-D-2′,3′-didehydro-2′,3′-dideoxy-5-fluorocytidine] |  | potent anti-HIV activity in vitro | no cross-resistance with all approved anti-HIV agents |
